Source: paper PMC10647589, “Heterogeneous Cellular Response of Primary and Metastatic Human Gastric Adenocarcinoma Cell Lines to Magnoflorine and Its Additive Interaction with Docetaxel” (International Journal of Molecular Sciences, 2023)

Experiments:
Assay type in all cases: cell-based
[1] = tested on: ACC-201 human GC cells; assay: MTT assay (viability; isobolographic analysis); settings: ACC-201, 72 h incubation, mean ± SEM
Procedure: (§1) The human GC cells ACC-201, AGS, MKN-74 and NCI-N87 were placed in 96-well plates and allowed to adhere overnight. On the following day, the growth medium was removed, and the cells were treated with a series of tested MGN and DCT dilutions (2.0–75 and 0.0004–0.0404 µg/mL, respectively) for 72 h at 37 °C. […] Subsequently, a solution of MTT (5 mg/mL) was added to each well, and the cells were further incubated for 3 h at 37 °C. Tetrazolium salt was reduced to violet formazan derivatives via the succinate dehydrogenase of metabolically active cells. Insoluble formazan compounds formed inside the cells were extracted with a sodium dodecyl sulfate buffer (10% SDS in 0.01 N HCl) overnight to achieve a quantitative assessment of the amount produced. The absorbance of the samples was measured at 570 nm using Infinite M200 Pro microplate reader (Tecan, Männedorf, Switzerland). Cell viability was presented as a percentage relative to the untreated control cells.
(§2) Interactions between MGN and DCT analyzed after 72 h in four different GC cell lines (ACC-201, AGS, MKN-74 and NCI-N87) were characterized by means of an isobolographic analysis in the MTT assay. The percentage inhibition of cell viability accompanied by the specific concentrations of the tested substances (MGN and DCT) were transferred to the MS Excel spreadsheet, and the data were computed using the log–probit method. Next, the concentration–response effect graphs for the tested drugs (MGN and DCT) were drawn, and the IC50 values for every tested drug were calculated. The cooperative effect of two concentration–response lines was tested for the MGN and DCT combination, as previously described. The calculations of IC50 values (±SEM) were computed with formulas originally derived from the log–probit method and adapted to the in vitro conditions, as described earlier. The concentration–response lines for MGN and DCT were not parallel, and thus, the isobolographic additivity was illustrated graphically as an area bounded by two (upper and lower) lines of additivity. From the experimentally denoted IC50 values for MGN and DCT in the MTT assay, median additive inhibitory concentrations (IC50add) for the mixture (at the fixed ratio of 1:1 of MGN and DCT) in various cell lines (ACC-201, AGS, MKN-74 and NCI-N87) were calculated, as described previously. More information on isobolographic analysis can be found in the literature.

[2] = tested on: AGS human GC cells; assay: MTT assay (viability; isobolographic analysis); settings: 72 h incubation, mean ± SEM
Procedure: as §1, §2

[3] = tested on: MKN-74 human GC cells; assay: MTT assay (viability; isobolographic analysis); settings: MKN-74, 72 h incubation, mean ± SEM
Procedure: as §1, §2

[4] = tested on: NCI-N87 human GC cells; assay: MTT assay (viability; isobolographic analysis); settings: NCI-N87, 72 h incubation, mean ± SEM
Procedure: as §1, §2

[5] = tested on: ACC-201 human GC cells; assay: Cell cycle analysis (PI, flow cytometry); settings: 72 h
Procedure: (§3) Human GC cells ACC-201, AGS, MKN-74 and NCI-N87 were seeded in 6-well plates and allowed to adhere overnight. On the following day, the growth medium was removed, and the cells were treated with indicated concentrations of MGN (10–40 µg/mL) for 72 h. After that, the cells were washed with phosphate-buffered saline (PBS) and fixed in 70% ethanol at 4 °C overnight. Then, the cells were washed with PBS and stained with propidium iodide, utilizing PI/RNase Staining Buffer (BD Biosciences, Heidelberg, Germany) for 15 min in the dark. Cell distribution in different stages of the cell cycle was performed through the use of the FACS CaliburTM flow cytometer (BD Biosciences, Mountain View, CA, USA).

[6] = tested on: AGS human GC cells; assay: Cell cycle analysis (PI, flow cytometry); settings: 72 h
Procedure: as §3

[7] = tested on: MKN-74 human GC cells; assay: Cell cycle analysis (PI, flow cytometry); settings: 72 h
Procedure: as §3

[8] = tested on: NCI-N87 human GC cells; assay: Cell cycle analysis (PI, flow cytometry); settings: 72 h
Procedure: as §3

## COc1ccc2c(c1O)-c1c(O)c(OC)cc3c1[C@H](C2)[N+](C)(C)CC3 [MGN, magnoflorine]
[1]
  IC50: 15.8 ± 2.79 µg/mL
[2]
  IC50: 17.2 ± 3.59 µg/mL
[3]
  IC50: 34.8 ± 6.04 µg/mL
[4]
  IC50: 33.3 ± 5 µg/mL
[5]; ACC-201, MGN 10 µg/mL
  cells in G1 phase: 62.76% ± 2.434
  cells in G2 phase: 9.96% ± 3.707
  cells in S phase: 8.74% ± 3.423
  cells in subG1 phase: 18.52% ± 1.414
[5]; ACC-201, MGN 20 µg/mL
  cells in G1 phase: 57.23% ± 2.112
  cells in G2 phase: 8.34% ± 4.237
  cells in S phase: 8.33% ± 1.647
  cells in subG1 phase: 26.06% ± 1.399
[5]; ACC-201, MGN 30 µg/mL
  cells in G1 phase: 49.55% ± 1.820
  cells in G2 phase: 5.87% ± 5.399
  cells in S phase: 6.16% ± 1.340
  cells in subG1 phase: 38.50% ± 1.886
[5]; ACC-201, MGN 40 µg/mL
  cells in G1 phase: 39.27% ± 3.408
  cells in G2 phase: 3.74% ± 1.615
  cells in S phase: 5.61% ± 1.874
  cells in subG1 phase: 51.43% ± 2.072
[6]; MGN 10 µg/mL
  cells in G1 phase: 58.09% ± 8.195
  cells in G2 phase: 23.35% ± 12.110
  cells in S phase: 17.62% ± 3.599
  cells in subG1 phase: 1.19% ± 2.437
[6]; MGN 20 µg/mL
  cells in G1 phase: 53.06% ± 12.980
  cells in G2 phase: 24.06% ± 16.000
  cells in S phase: 21.07% ± 2.593
  cells in subG1 phase: 2.17% ± 2.519
[6]; MGN 30 µg/mL
  cells in G1 phase: 43.08% ± 14.330
  cells in G2 phase: 31.77% ± 17.630
  cells in S phase: 21.55% ± 2.265
  cells in subG1 phase: 2.17% ± 3.000
[6]; MGN 40 µg/mL
  cells in G1 phase: 38.15% ± 13.350
  cells in G2 phase: 39.34% ± 15.720
  cells in S phase: 19.89% ± 2.653
  cells in subG1 phase: 2.98% ± 2.448
[6]; MGN 10–40 µg/mL
  effect on cell cycle progression: induced the G2/M phase arrest
[7]; MKN-74, MGN 10 µg/mL
  cells in G1 phase: 69.07% ± 1.886
  cells in G2 phase: 16.23% ± 1.928
  cells in S phase: 13.36% ± 0.622
  cells in subG1 phase: 1.60% ± 2.688
[7]; MKN-74, MGN 20 µg/mL
  cells in G1 phase: 73.81% ± 4.227
  cells in G2 phase: 14.14% ± 2.076
  cells in S phase: 9.97% ± 1.867
  cells in subG1 phase: 2.28% ± 2.818
[7]; MKN-74, MGN 30 µg/mL
  cells in G1 phase: 65.90% ± 3.533
  cells in G2 phase: 22.92% ± 2.455
  cells in S phase: 7.72% ± 1.822
  cells in subG1 phase: 3.59% ± 2.787
[7]; MKN-74, MGN 40 µg/mL
  cells in G1 phase: 50.20% ± 5.303
  cells in G2 phase: 35.94% ± 6.691
  cells in S phase: 8.25% ± 2.280
  cells in subG1 phase: 5.60% ± 1.002
[7]; MKN-74, MGN 10 and 20 µg/mL vs. 40 µg/mL
  effect on cell cycle progression: induced G1/S or G2/M phase cell cycle arrest
[8]; NCI-N87, MGN 10 µg/mL
  cells in G1 phase: 69.39% ± 3.658
  cells in G2 phase: 16.52% ± 2.770
  cells in S phase: 11.81% ± 3.808
  cells in subG1 phase: 2.41% ± 2.189
[8]; NCI-N87, MGN 20 µg/mL
  cells in G1 phase: 70.17% ± 2.905
  cells in G2 phase: 15.56% ± 2.419
  cells in S phase: 10.44% ± 6.685
  cells in subG1 phase: 3.93% ± 2.591
[8]; NCI-N87, MGN 30 µg/mL
  cells in G1 phase: 67.45% ± 3.535
  cells in G2 phase: 16.21% ± 1.874
  cells in S phase: 10.12% ± 7.739
  cells in subG1 phase: 6.33% ± 2.772
[8]; NCI-N87, MGN 40 µg/mL
  cells in G1 phase: 64.37% ± 3.651
  cells in G2 phase: 17.06% ± 2.426
  cells in S phase: 9.24% ± 5.603
  cells in subG1 phase: 9.47% ± 1.163
[8]; NCI-N87, MGN 10–40 µg/mL
  effect on cell cycle progression: Minor changes in cell cycle progression
